{"source": "patent US12551532B2", "about": "“Long-acting amylin receptor agonists and uses thereof” (Eli Lilly and Company, priority 2021, dated 2026)", "key": {"[1]": {"test": "Pharmacokinetics in male cynomolgus monkeys", "assay_type": "in vivo", "conditions": "single SC 20 nmol/kg, mean", "protocol": "The pharmacokinetics of Compound II (SEQ ID NO:2), Compound IV (SEQ ID NO:4), Compound VI (SEQ ID NO:6), and Compound VIII (SEQ ID NO:8) are evaluated following a single subcutaneous administration of 20 nmol/kg to male cynomolgus monkeys. Blood samples are collected at 1, 3, 6, 12, 24, 48, 72, 120, 168, 240, 336, 408, 504 hours post SC dose. The resulting individual plasma concentrations are used to calculate pharmacokinetic parameters. Peptide plasma (K3EDTA) concentrations are determined using a qualified LC/MS method that measured the intact mass of the peptides. Each peptide and an analog as an internal standard are extracted from plasma. A high resolution Thermo Q-Exactive is used for LC/MS detection."}, "[2]": {"biological_target": "T1, human calcitonin receptor (hCTR) (Homo sapiens, UniProt P30988)", "T1 construct": "expressed in transfected cells; host or cells: membranes of UM-UC-3 (UMUC3) cells stably expressing human CTa", "T1 sequence (P30988 25-474)": "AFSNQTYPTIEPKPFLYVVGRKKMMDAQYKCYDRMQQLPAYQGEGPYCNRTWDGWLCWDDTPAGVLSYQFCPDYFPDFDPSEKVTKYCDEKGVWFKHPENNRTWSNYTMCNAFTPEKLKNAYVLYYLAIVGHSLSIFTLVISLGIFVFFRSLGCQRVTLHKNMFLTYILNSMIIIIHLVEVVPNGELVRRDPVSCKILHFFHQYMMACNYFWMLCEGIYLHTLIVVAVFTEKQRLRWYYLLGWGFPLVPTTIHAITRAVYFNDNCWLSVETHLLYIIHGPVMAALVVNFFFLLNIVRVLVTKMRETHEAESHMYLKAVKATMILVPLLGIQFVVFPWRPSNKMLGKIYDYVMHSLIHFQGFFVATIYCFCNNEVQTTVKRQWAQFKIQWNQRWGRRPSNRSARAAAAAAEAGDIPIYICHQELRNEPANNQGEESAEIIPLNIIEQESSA", "test": "hCTR competitive radioligand binding filter assay (125I-hCT)", "conditions": "± SE; membranes of hCTR overexpressing cells", "protocol": "(§1) The equilibrium dissociation constants (Kd) for the various receptor/radioligand interactions are determined from saturation binding analysis using the same reagents and buffers as described below for compound testing.\nThe receptor binding affinity (Ki) of rAMY, hCT, and hAMY agonist peptides on hCTR membranes is determined from a competitive radioligand binding filter assay."}, "[3]": {"tested_on": "pre-existing antibodies (ADA) in normal human serum", "test": "Pre-existing reactivity (ACE assay format)", "conditions": ">50 donors; treatment-naive normal human serum", "protocol": "This assay assesses the presence of pre-existing antibodies (ADA) against the tested molecules in treatment-naive normal human serum (NHS). Diluted NHS is incubated overnight on a Pierce Streptavidin plate coated with biotinylated tested molecules. On the following day, the captured binding proteins are acid eluted, hard-coated to a Mesoscale (MSD) plate, and detected with a combination of biotin-labeled molecule and ruthenium-labeled streptavidin. If anti-drug antibodies are present, they will bind the labeled drug and the resulting signal is referred to as Tier 1 signal (expressed as electrochemiluminescence). This signal is confirmed in Tier 2 by adding excess unlabeled tested molecule in the detection step, which results in the suppression of the Tier 1 signal. The presence of pre-existing anti-drug antibodies is expressed as magnitude of the 90th percentile of Tier 2 inhibition. The 90th percentile of Tier 2 inhibition, is a statistical tool to assess the magnitude of specificity of Tier 1 reactivity. This 90th percentile is used to rank molecules in terms of ADA risk."}, "hAMY1R [4]": {"biological_target": "T2, hAMY1R (Homo sapiens, UniProt O60894+P30988)", "T2 construct": "expressed in transfected cells", "T2 sequence (O60894 27-148 partner, one chain of several)": "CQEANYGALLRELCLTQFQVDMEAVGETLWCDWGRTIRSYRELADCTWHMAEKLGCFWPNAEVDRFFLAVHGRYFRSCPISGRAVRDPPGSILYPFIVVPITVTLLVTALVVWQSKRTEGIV", "test": "hAMY1R competitive radioligand binding filter assay (125I-rAMY)", "conditions": "± SE; membranes of hAMY1R overexpressing cells", "protocol": "as §1\nThe receptor binding affinity (Ki) of rAMY, hCT, and hAMY agonist peptides are determined from a competitive radioligand binding filter assay. The assay buffer consists of (in mM) 50 HEPES, pH 7.1, 5 MgCl2, 5 KCl, 0.2% (w/v) bacitracin, 0.003% (w/v) saponin and is used to dilute radioligand and membrane preparation. Binding reactions are carried out in 0.1 mL total reaction volume in a polystyrene 96 deep-well assay block. […] Test compounds and non-specific binding (NSB—defined as 300 nM rAMY) are added to aliquots of radioactivity buffer. […] The binding reaction is initiated by the addition of 0.05 mL of 200 μg/mL hAMY1R diluted in assay buffer to the radioactivity. Assay blocks are gently vortexed, sealed with parafilm, and incubated at RT for approximately 20 hours. […] At the end of the incubation, bound ligand is separated from free by addition of an ice cold quench buffer consisting of 100 mM NaCl, 50 mM TRIS-HCl pH 7.1 and immediately collected over the filter mat by vacuum filtration with a TomTec 96 well filter harvester using the following filter protocol (Dry time, 7; Cycle 3 repeat, 0; Wash Time, 1; Soak Time, 1; 1st Aspirate Time, 4; Wash/Aspirate Time, 7; 2nd Aspirate, 4; air pressure 2 PSI)."}, "hAMY1R [5]": {"biological_target": "T2, hAMY1R", "test": "hAMY1R cAMP functional activity (HTRF)", "assay_type": "cell-based", "conditions": "±SE; UMUC3 cells overexpressing hAMY1R; relative EC50", "how_it_was_run": "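UMUC3 cells expressing hCTR plus transfected human RAMP1 (AMY1R) were treated with peptide in a 1:3 dilution series at 1500 cells/well for 1 h at room temperature. Intracellular cAMP was measured by HTRF after 60 min lysis-detection and converted to pmol/well against a standard curve for each run.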"}, "CD4+ T cells": {"tested_on": "CD4+ T cells", "test": "T cell proliferation assay", "conditions": "7-10 donors with diverse MHC", "quoted_text": "This assay assesses the ability of tested antibodies or tested MAPPS peptides to activate CD4+ T cells by inducing cellular proliferation. CD8+ T cell depleted PBMC's are prepared and labeled with CFSE. Each sample is tested with media control, keyhole limpet haemocyanin (KLH; positive clinical benchmark control), tested antibodies, or tested MAPPS peptides. Cultures are incubated for 7 days. On day 7, samples are analyzed by flow cytometry."}, "[6]": {"conditions": "male, cynomolgus monkey, plasma, n = 3"}}, "note": "Starred links: 1 amine or outer side, 2 acyl side, 3 side chain; linkers in the order of their positions; H or OH if unused. Positions of bridges follow the written chain, without caps; N, C: chain ends. Non-standard residues stand in square brackets, D forms with d. Residues, ends and D or L forms follow the SMILES beside them. Groups on a side chain read outwards from the residue. *: point of attachment. C20 diacid = O=C(O)CCCCCCCCCCCCCCCCCCC(=O)*; γGlu = O=C(O)[C@H](CCC(=O)[*:2])N[*:1]; αMeF = C[C@](N)(Cc1ccccc1)C(=O)O; NMeD = CN[C@@H](CC(=O)O)C(=O)O; Orn = NCCC[C@H](N)C(=O)O; CH2 = C([*:1])[*:2]", "data": [{"smiles": "CC[C@H](C)[C@H](NC(=O)[C@@H]1CCCN1C(=O)CNC(=O)[C@H](Cc1ccccc1)NC(=O)[C@H](CC(=O)O)N(C)C(=O)[C@H](CC(N)=O)NC(=O)[C@H](CO)NC(=O)[C@H](CO)NC(=O)[C@H](CCCNC(=N)N)NC(=O)[C@@H](NC(=O)[C@H](CC(C)C)NC(=O)[C@](C)(Cc1ccccc1)NC(=O)[C@H](CCC(=O)O)NC(=O)[C@H](C)NC(=O)[C@H](CC(C)C)NC(=O)[C@H](CCCN)NC(=O)CNC(=O)[C@@H](NC(=O)[C@H](C)NC(=O)[C@@H]1CSCSC[C@H](NC(=O)[C@@H](N)CCCCNC(=O)CC[C@H](NC(=O)CC[C@H](NC(=O)CCCCCCCCCCCCCCCCCCC(=O)O)C(=O)O)C(=O)O)C(=O)N[C@@H](CCC(=O)O)C(=O)N[C@@H]([C@@H](C)O)C(=O)N[C@@H](C)C(=O)N[C@@H]([C@@H](C)O)C(=O)N1)[C@@H](C)O)C(C)C)C(=O)N[C@@H](CC(C)C)C(=O)N1CCC[C@H]1C(=O)N1CCC[C@H]1C(=O)N[C@H](C(=O)N[C@@H](CCC(=O)O)C(=O)N[C@H](C(=O)NCC(=O)N[C@@H](CO)C(=O)N[C@@H](CC(N)=O)C(=O)N[C@H](C(=O)N[C@@H](Cc1ccc(O)cc1)C(N)=O)[C@@H](C)O)C(C)C)[C@@H](C)O", "note": "[Compound VI, KCETATCATG-Orn-LAE-αMeF-LVRSSN-NMeD-FGPILPPTEVGSNTY-NH2] (H-K([γGlu-γGlu-C20 diacid])CETATCATG[Orn]LAE[αMeF]LVRSSN[NMeD]FGPILPPTEVGSNTY-NH2; linker 2-7 via CH2)", "values": [{"measurement": "CL/F", "setting": "[1]; [6]", "result": 1.26, "unit": "mL/h/kg"}, {"measurement": "Tmax", "setting": "[1]; [6]", "result": "40 ± 13.9", "unit": "h"}, {"measurement": "half-life", "setting": "[1]; male, cynomolgus monkey, plasma, n = 3, read-out: T½ (converted)", "result": "85 ± 5.8", "unit": "h"}, {"measurement": "AUCINF/D", "setting": "[1]; n = 3", "result": "794 ± 27", "unit": "hr * kg * nmol/L/nmol"}, {"measurement": "Cmax/D", "setting": "[1]; n = 3", "result": "4.9 ± 0.7", "unit": "kg * nmol/L/nmol"}, {"measurement": "Ki", "setting": "[2]", "result": "235000 ± 45000", "unit": "pM"}, {"measurement": "Pre-existing Reactivity 90th percentile T2 inhibition", "setting": "[3]", "result": 43.9, "unit": "%"}, {"measurement": "Ki", "setting": "hAMY1R [4]", "result": "44.5 ± 8.2", "unit": "pM"}, {"measurement": "EC50", "setting": "hAMY1R [5]", "result": "107 ± 15", "unit": "pM"}, {"measurement": "T Cell Proliferation Assay: protein, immunogenicity risk", "setting": "CD4+ T cells", "result": "Low Risk"}, {"measurement": "T Cell Proliferation Assay: protein, positive donors", "setting": "CD4+ T cells", "result": "(1/9"}]}]}
